In US20140378378A1, “ERYTHROPOIETIN-DERIVED PEPTIDE AND USE THEREFOR” (priority 2011, published 2014):

Tests used:
cardiomyocytes = assay: Cell survival of cardiomyocytes, MTT assay, 72 hours in PBS free of serum and nutrients, hypoxic condition; type: cell-based, Wister rat; settings: 0 nM = 100%
Method: An 8 weeks old Wister rat was injected with ketamine and pentobarbital to quickly kill the […], and the heart was quickly separated from the mouse. An aorta was used to perfuse with Ca free Krebs-Henseleit buffer (KHB) solution, which was pre-heated to a temperature of about 34° C. to about 37° C., in heart direction. Thereafter, the KHB solution was switched to Hank's balanced salt solution (HBSS:GIBCO, Grand Island, N.Y.) containing 0.15% class II collagenase (Cooper Biomedical, Malvern, Pa.) and then perfused for about 30 to about 40 minutes. Thereafter, the product obtained therefrom was washed twice with a cell culture medium (Dulbecco's modified Eagle's medium, DMEM). Ventricles and atria were separated therefrom, ventricular tissues were thoroughly chopped and then stirred thoroughly for about 5 minutes in a shaker filled with cell culture medium (DMEM) containing class II collagenase that was pre-heated to a temperature of about 34° C. to about 37° C. Connective tissues that were not dissolved were filtered and a collagenase-containing solution was washed twice with the cell culture medium (DMEM). The product obtained therefrom was gently centrifuged at a speed of 10 g for 2 minutes, a supernatant obtained therefrom was separated and removed, and cell components were washed three times with a cell culture medium (DMEM) solution containing 1% fetal bovine serum (FBS; Sigma Chemical, St. Louis, Mo.). Thereafter, the cells obtained therefrom were stabilized in a cell culture medium (DMEM), 10% FBS, 10 mM N-2-hydroxyethylpiperazine-N′-2-ethanesulfonic acid (HEPES, GIBCO Laboratories, Grand Island, N.Y.), 2 mM L-glutamine, penicilin-stereptomycin (100 IU/mL, GIBCO) for 60 minutes.
Thereafter, the cells were divided in a 6-well plate at a density of 20×10^3 cells/cm^2 and then bromodeoxyuridine (BrdU, 10 uM, Sigma-Aldrich) was added to the cell culture medium over 3 days to prevent the proliferation of fibroblasts and progenitor cells (Lokuta et al, 1994; Miragoli et al., 2006). The cells were cultured in an incubator under conditions of 95% of O2, 5% of CO2, and a temperature of 37° C. for the next experiment.
Cells were seeded in a 96-well plate at a density of 2×10^4 cells/well and 200 ul for each well. In this regard, cell confluence was set at about 70% to about 80%. After 24 hours, when the cells have been stabilized, a 26 gauge or 28 gauge needle was used to remove a preexisting medium from the wells. 200 ul of PBS free of serum and nutrients was added to each well, the wells were divided into erythropoietin (EPO) treatment groups and MKX-2 treatment groups, which were further divided into experimental groups according to concentrations of 0 nM, 0.1 nM, 1 nM, 10 nM, 100 nM, and 1000 nM and then treated with a drug for 72 hours in a hypoxic condition, and then the cells were subjected to an MTT assay to compare cell survival rates. The EPO used was an Eporon injection (Dong-A Pharmaceuticals, Korea). All experimental groups for each concentration included 7 wells.
After a predetermined treatment time, 3-[4,5-dimethylthiazol-2-yl]-2,5-diphenyl tetrazolium bromide (MIT, Sigma, M2128) that was dissolved in a phosphate buffered saline (PBS) and then sterilization filtered by using a membrane filter having a thickness of 0.22 um was added to each well in an amount of 100 ul at a concentration of 1 mg/ml. In this regard, an MTT reagent was used after wrapping the MTT reagent with a foil sheet to block from light. […]

[1] = tested on: cerebral infarction induced Sprague-Dawley rat models; assay: Cerebral infarction animal experiment: middle cerebral artery blockage/reperfusion, infarct volume by TTC dye; type: in vivo; settings: 3000 IU/kg EPO injected right after reperfusion, measured after 24 hours
Description: In the present experiment, Spague-Dawley (SD) rats weighing about 280 g to about 330 g were used, which were purchased from Koatech Inc. (Seoul, Korea). The number of rats used was 39, wherein 13 of them were used as a control group and another 26 were divided into 13 in a MKX-2 treatment group and 13 in an EPO treatment group.
To induce cerebral infarction, a method of temporarily blocking a left middle cerebral artery and then reperfusing the same was used, and an intraluminal filament technique, which was modified from the Koizumi method was used. Then, each SD rat was anesthetized with a mixture gas of 70% nitrous oxide and 30% oxygen along with isoflurane (3% for induction and 2% for surgical procedure). During the surgery, an excision was made slightly leftwards from the center of the neck and the left common carotid artery was carefully separated without damaging surrounding vagus nerves. […]
The cerebral infarction area was measured by an image analyzer with LeicaQwin program (Leica Microsystem Image Solution Ltd., Cambridge, England) and a volume (mm^3) was calculated as a sum of infarct volumes (=infarct area of a slice×thickness) of the slices, and then an average and a standard deviation were calculated for each experimental group. […]

EPO: erythropoietin; the EPO used was an Eporon injection (Dong-A Pharmaceuticals, Korea)
cell survival rate compared with 0 nM (cardiomyocytes; 0.1 nM): not substantially different
cell survival rate compared with the initial condition (cardiomyocytes; 1 nM): substantially decreased
cell survival rate (cardiomyocytes; 10 nM): 94.52 ± 4.36%
cell survival rate (cardiomyocytes; 100 nM): 102.64 ± 2.69%
cell survival rate (cardiomyocytes; 1000 nM): 106.97 ± 1.99%
volume of cerebral infarction [1]: 246.27 ± 37.52 mm^3
